Source: PubChem BioAssay (NCI)
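These data come from cells grown in 96-well plates and exposed to compound for 48 hours at five concentrations. The concentration for 50% growth inhibition is given as GI50. The concentration for full growth arrest is given as TGI.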

Key:
Test in all cases: NCI tumour cell line growth inhibition, 48 h
LOX IMVI melanoma = tested on: LOX IMVI melanoma
CCRF-CEM leukemia = tested on: CCRF-CEM leukemia
M14 melanoma = tested on: M14 melanoma
OVCAR-3 ovarian = tested on: OVCAR-3 ovarian
SK-OV-3 ovarian = tested on: SK-OV-3 ovarian
UACC-62 melanoma = tested on: UACC-62 melanoma
SR leukemia = tested on: SR leukemia
MDA-MB-231 breast = tested on: MDA-MB-231 breast
MCF7 breast = tested on: MCF7 breast
HS 578T breast = tested on: HS 578T breast

SMILES	TGI (LOX IMVI melanoma)	TGI (CCRF-CEM leukemia)	TGI (M14 melanoma)	TGI (OVCAR-3 ovarian)	TGI (SK-OV-3 ovarian)	TGI (UACC-62 melanoma)	TGI (SR leukemia)	TGI (MDA-MB-231 breast)	TGI (MCF7 breast)	TGI (HS 578T breast)	GI50 (MDA-MB-231 breast)	GI50 (CCRF-CEM leukemia)	GI50 (HS 578T breast)	GI50 (M14 melanoma)	GI50 (SK-OV-3 ovarian)	GI50 (UACC-62 melanoma)	GI50 (LOX IMVI melanoma)	GI50 (OVCAR-3 ovarian)
COC(=O)C(C(=O)C(N)=O)c1csc(-n2nc(-c3ccccc3)cc2-c2ccccc2)n1 (stereo unspecified)	> 100 µM	> 31.6 µM	> 31.6 µM	> 100 µM	> 31.6 µM	> 31.6 µM	–	–	–	–	–	–	–	–	–	–	–	–
COc1ccc2c(c1)c1c3n2CCNN=C3CCC1	> 100 µM	> 100 µM	> 100 µM	> 100 µM	> 100 µM	> 100 µM	> 100 µM	–	–	–	–	–	–	–	–	–	–	–
O=C(Cc1ccccc1)NN1C(=O)/C(=C\c2ccccc2O)SC1=Nc1ccccc1	–	–	> 100 µM	> 100 µM	> 100 µM	> 100 µM	–	> 100 µM	> 100 µM	> 100 µM	–	–	–	–	–	–	–	–
O=C(/C=C/C1C(=O)NC(=O)NC1=O)CC(=O)C(=O)Nc1cc(Cl)c(Cl)cc1Cl	> 100 µM	> 100 µM	> 100 µM	> 100 µM	> 100 µM	> 100 µM	> 100 µM	–	–	–	–	–	–	–	–	–	–	–
O=c1[nH]cc(C(F)(C(F)(F)F)C(F)(F)F)c(=O)[nH]1	> 100 µM	> 100 µM	> 100 µM	> 100 µM	> 100 µM	> 100 µM	–	–	–	–	–	–	–	–	–	–	–	–
CC(C)[Si](OCC1CC(C#N)OC(C)(C)O1)(C(C)C)C(C)C (stereo unspecified)	33.7 µM	39.1 µM	48.4 µM	29.4 µM	73.4 µM	> 100 µM	41.5 µM	–	–	–	–	–	–	–	–	–	–	–
CC(=O)Nc1ccc(-c2nnc(SCC(=O)Nc3ccc(Cl)cc3)o2)cc1	22.4 µM	82.9 µM	34.1 µM	31.1 µM	47.1 µM	20.2 µM	–	–	–	–	–	–	–	–	–	–	–	–
CN=C(N)N/N=C(\C)c1ccc2c(c1)Cc1ccccc1-2	–	7.14 µM	3.02 µM	–	5.1 µM	2.86 µM	–	4.31 µM	–	–	1.78 µM	1.73 µM	3.17 µM	1.65 µM	1.61 µM	1.5 µM	–	–
Cc1ccc(S(=NS(=O)(=O)c2ccc(C)cc2)c2ccc(C)cc2)cc1	–	> 100 µM	> 100 µM	> 100 µM	–	–	> 100 µM	–	> 100 µM	–	–	–	–	–	–	–	–	–
CC1=CC(=O)NP(=O)(C23CC4CC(CC(C4)C2)C3)N1 (stereo unspecified)	> 100 µM	> 100 µM	> 100 µM	> 100 µM	> 100 µM	> 100 µM	> 100 µM	–	–	–	–	–	–	–	–	–	–	–
COc1ccc2c([nH]c3c(O)c(-c4c(C)cc5c([nH]c6c(CC=C(C)C)c(OC)ccc65)c4O)c(C)cc32)c1CC=C(C)C	> 100 µM	> 100 µM	> 100 µM	> 100 µM	> 100 µM	> 100 µM	> 100 µM	–	–	–	–	–	–	–	–	–	–	–
C/C(=N\NS(=O)(=O)c1ccc([N+](=O)[O-])cc1)c1ccc[n+]([O-])n1	2.15 µM	> 30.1 µM	4.84 µM	4.95 µM	7.24 µM	2.59 µM	49 µM	–	–	–	–	–	–	–	–	–	–	–
[CH3][Sn]1([CH3])[O]CC(COc2cc(Cl)c(Cl)cc2Cl)[O]1 (stereo unspecified)	> 100 µM	> 100 µM	> 100 µM	> 100 µM	> 100 µM	> 100 µM	–	–	–	–	–	32.5 µM	–	39.6 µM	85.6 µM	40.7 µM	> 100 µM	42.8 µM
C#CCOCn1cnc2ncnc(N)c21	> 100 µM	> 100 µM	–	> 100 µM	> 100 µM	> 100 µM	> 100 µM	–	–	–	–	–	–	–	–	–	–	–
O=C1C=Cc2ncccc2C1=O	26.9 µM	15.2 µM	32 µM	46.9 µM	> 61.7 µM	31.1 µM	–	–	–	–	–	–	–	–	–	–	–	–
Cc1ccc(/C=N/NS(=O)(=O)c2ccccc2)c(C)c1	> 100 µM	> 100 µM	> 100 µM	> 100 µM	> 100 µM	> 100 µM	> 100 µM	–	–	–	–	–	–	–	–	–	–	–
CC(=O)OC(=O)O/C=C\CCl	–	> 100 µM	> 100 µM	> 100 µM	> 100 µM	> 100 µM	> 100 µM	–	–	–	–	–	–	–	–	–	–	–
Cn1nc(-c2ccccc2)c(C(=O)/C=C/c2ccc(Cl)cc2)c(N2CCCC2)c1=O	39.2 µM	6.7 µM	22.2 µM	–	18.8 µM	22.4 µM	–	–	–	–	–	–	–	–	–	–	–	–
C/C(CC(=O)Nc1cccc([N+](=O)[O-])c1)=N\NC(=O)CC#N	> 100 µM	> 100 µM	> 100 µM	> 100 µM	> 100 µM	> 100 µM	–	–	–	–	–	–	–	–	–	–	–	–
